The test deals with T1, hDGAT1 (Homo sapiens, UniProt O75907).
T1 construct: made in house; host or cells: Sf9 insect cells (baculovirus); microsomal fraction
T1 sequence (O75907 1-488): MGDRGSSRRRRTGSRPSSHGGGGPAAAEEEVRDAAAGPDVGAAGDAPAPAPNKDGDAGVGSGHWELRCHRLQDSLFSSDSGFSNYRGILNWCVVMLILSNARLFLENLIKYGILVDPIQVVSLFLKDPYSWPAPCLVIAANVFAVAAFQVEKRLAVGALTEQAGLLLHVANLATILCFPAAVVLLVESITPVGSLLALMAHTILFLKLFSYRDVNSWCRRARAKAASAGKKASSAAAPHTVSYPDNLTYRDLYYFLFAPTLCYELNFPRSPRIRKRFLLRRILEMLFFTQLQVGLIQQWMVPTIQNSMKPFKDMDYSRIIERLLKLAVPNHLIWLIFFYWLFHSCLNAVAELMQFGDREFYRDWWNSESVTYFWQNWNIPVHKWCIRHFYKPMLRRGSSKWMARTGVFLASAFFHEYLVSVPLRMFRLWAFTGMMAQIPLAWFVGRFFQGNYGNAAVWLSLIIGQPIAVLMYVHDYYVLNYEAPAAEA
Kind of test: In-vitro DGAT1 assay with hDGAT1 microsomes from Sf9 cells (14C oleoyl CoA, scintillation counting). Format: biochemical. Conditions: for inhibition at 1 µM: read-out: Percentage inhibition of hDGAT1; for Percentage inhibition of hDGAT1: at 1 μM. The method, boiled down: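 Microsomes from Sf9 cells infected with hDGAT1 baculovirus (MOI 5, harvested ~66-72 h) were incubated with [14C]oleoyl-CoA and 1,2-dioleoyl-sn-glycerol at 37 °C for 10 min, in duplicate. After alkaline ethanol stop, triglycerides were heptane-extracted and counted by liquid scintillation; percent inhibition was plotted against compound concentration (nM).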

Molecules are shown by their SMILES.

`CC(C)(CCc1ncc(-c2ccc(NC(=O)Nc3ccc4c(c3)OCCO4)cc2)s1)C(=O)O` [Example 245, 4-(5-(4-(3-(2,3-Dihydrobenzo[b][1,4]dioxin-6-yl)ureido)phenyl)thiazol-2-yl)-2,2-dimethylbutanoic acid]: the inhibition at 1 µM is above 50%.

Regarding `CC(C)(CCc1ncc(-c2ccc(NC(=O)Nc3nnn[nH]3)cc2)s1)C(=O)O` [Example 247, 4-(5-(4-(3-(1H-tetrazol-5-yl)ureido)phenyl)thiazol-2-yl)-2,2-dimethylbutanoic acid], the inhibition at 1 µM fell in the range of 20 to 50%.

With `COCCNC(=O)Nc1ccc(-c2cnc(CCC(C)(C)C(=O)O)s2)cc1` [Example 249, 4-(5-(4-(3-(2-methoxyethyl)ureido)phenyl)thiazol-2-yl)-2,2-dimethylbutanoic acid], the inhibition at 1 µM was in the range of 20 to 50%.

In the case of `CC(C)(CCc1ncc(-c2ccc(NC(=O)NC3Cc4ccccc4C3)cc2)s1)C(=O)O` [Example 251, 4-(5-(4-(3-(2,3-Dihydro-1H-inden-2-yl)ureido)phenyl)thiazol-2-yl)-2,2-dimethyl butanoic acid], the inhibition at 1 µM was above 50%.

For the molecule `CC(C)(CCc1ncc(-c2ccc(NC(=O)Nc3cc(F)c(F)c(F)c3)cc2)s1)C(=O)O` [Example 255, 2,2-dimethyl-4-(5-(4-(3-(3,4,5-trifluorophenyl)ureido)phenyl)thiazol-2-yl)butanoic acid], the inhibition at 1 µM is above 50%.

`CC(C)(CCc1ncc(-c2ccc(NC(=O)Nc3cc(F)c(F)c(F)c3)cc2)s1)C(=O)[O-].[Na+]` [Example 255A, Sodium salt of 2,2-dimethyl-4-(5-(4-(3-(3,4,5-trifluorophenyl)ureido)phenyl)thiazol-2-yl)butanoate]: the “Percentage inhibition of hDGAT1” value is “++ (>50 % Inhibition)”.

Consider `CC(C)(CCc1ncc(-c2ccc(NC(=O)NCCN3CCCCC3)cc2)s1)C(=O)O` [Example 257, 2,2-Dimethyl-4-(5-(4-(3-(2-(piperidin-1-yl)ethyl)ureido)phenyl)thiazol-2-yl)butanoic acid], for which the inhibition at 1 µM fell in the range of 20 to 50%.

For the molecule `CC(C)(CCc1ncc(-c2ccc(NC(=O)NCc3ccccc3)cc2)s1)C(=O)O` [Example 259, 4-(5-(4-(3-Benzylureido)phenyl)thiazol-2-yl)-2,2-dimethylbutanoic acid], the inhibition at 1 µM was above 50%.

For the molecule `CC(C)(CCc1ncc(-c2ccc(NC(=O)N3CCC(F)(F)CC3)cc2)s1)C(=O)O` [Example 261, 4-(5-(4-(4,4-Difluoropiperidine-1-carboxamido)phenyl)thiazol-2-yl)-2,2-dimethyl butanoic acid], the inhibition at 1 µM lay within 20 to 50%.

Consider `CC(C)(CCc1ncc(-c2ccc(NC(=O)N3CCC(c4ccccc4)CC3)cc2)s1)C(=O)O` [Example 263, 2,2-Dimethyl-4-(5-(4-(4-phenylpiperidine-1-carboxamido)phenyl)thiazol-2-yl)butanoic acid], for which the inhibition at 1 µM was above 50%.

With `CC(C)(CCc1ncc(-c2ccc(NC(=O)NCc3ccc(C#N)cc3)cc2)s1)C(=O)O` [Example 265, 4-(5-(4-(3-(4-Cyanobenzyl)ureido)phenyl)thiazol-2-yl)-2,2-dimethylbutanoic acid], the inhibition at 1 µM is 20 to 50%.

Turning to `O=C(O)CCCc1nnc(-c2ccc(NC(=O)Nc3cccc(C(F)(F)F)c3)cc2)s1` [Example 278, 4-(5-(4-(3-(3-(Trifluoromethyl)phenyl)ureido)phenyl)-1,3,4-thiadiazol-2-yl)butanoic acid], the inhibition at 1 µM was above 50%.

`O=C(O)CCCc1nnc(-c2ccc(NC(=O)Nc3ccccc3Cl)cc2)s1` [Example 280, 4-(5-(4-(3-(2-Chlorophenyl)ureido)phenyl)-1,3,4-thiadiazol-2-yl)butanoic acid]: the inhibition at 1 µM was above 50%.

As to `Cc1ccc(NC(=O)Nc2ccc(-c3nnc(CCCC(=O)O)s3)cc2)cc1` [Example 282, 4-(5-(4-(3-(p-Tolyl)ureido)phenyl)-1,3,4-thiadiazol-2-yl)butanoic acid], the inhibition at 1 µM is above 50%.

On to `O=C(O)CCCc1nnc(-c2ccc(NC(=O)Nc3ccc(F)cc3F)cc2)s1` [Example 284, 4-(5-(4-(3-(2,4-Difluorophenyl)ureido)phenyl)-1,3,4-thiadiazol-2-yl)butanoic acid], for which the inhibition at 1 µM is above 50%.

Take `O=C(O)CCCc1nnc(-c2ccc(NC(=O)Nc3ccc(Cl)cc3Oc3ccccc3)cc2)s1` [Example 286, 4-(5-(4-(3-(4-Chloro-2-phenoxyphenyl)ureido)phenyl)-1,3,4-thiadiazol-2-yl)butanoic acid]: the inhibition at 1 µM was above 50%.

In the case of `CC(C)(C)c1ccc(C(=O)Nc2ccc(-c3nnc(CCCC(=O)O)s3)cc2)cc1` [Example 288, 4-(5-(4-(4-(tert-Butyl)benzamido)phenyl)-1,3,4-thiadiazol-2-yl)butanoic acid], the inhibition at 1 µM lay within 20 to 50%.

Regarding `O=C(O)CCCc1nnc(-c2ccc(NC(=O)c3ccc(-c4ccccc4)cc3)cc2)s1` [Example 290, 4-(5-(4-([1,1′-Biphenyl]-4-ylcarboxamido)phenyl)-1,3,4-thiadiazol-2-yl)butanoic acid], the “Percentage inhibition of hDGAT1” value is given as “+ (20-50% Inhibition)”.

Consider `O=C(O)CCCc1nnc(-c2ccc(NC(=O)c3ccc(OC(F)(F)F)cc3)cc2)s1` [Example 292, 4-(5-(4-(4-(Trifluoromethoxy)benzamido)phenyl)-1,3,4-thiadiazol-2-yl)butanoic acid], for which the inhibition at 1 µM is 20 to 50%.

Regarding `O=C(O)CCCc1nnc(-c2ccc(NC(=O)Nc3ccccc3Cl)cc2)o1` [Example 296, 4-(5-(4-(3-(2-Chlorophenyl)ureido)phenyl)-1,3,4-oxadiazol-2-yl)butanoic acid], the inhibition at 1 µM was 20 to 50%.

On to `O=C(O)CCCc1nnc(-c2ccc(NC(=O)Nc3ccc(F)cc3F)cc2)o1` [Example 300, 4-(5-(4-(3-(2,4-Difluorophenyl)ureido)phenyl)-1,3,4-oxadiazol-2-yl)butanoic acid], for which the inhibition at 1 µM was in the range of 20 to 50%.

Consider `O=C(O)CCCc1nnc(-c2ccc(NC(=O)Nc3cccc(C(F)(F)F)c3)cc2)o1` [Example 302, 4-(5-(4-(3-(3-(Trifluoromethyl)phenyl)ureido)phenyl)-1,3,4-oxadiazol-2-yl)butanoic acid], for which the inhibition at 1 µM was in the range of 20 to 50%.

Take `O=C(Nc1ccc(-c2ccn(C3CCC(C(=O)O)CC3)n2)cc1)Nc1cccc(C(F)(F)F)c1` (stereo not drawn) [Example 315, 4-(3-(4-(3-(3-(Trifluoromethyl)phenyl)ureido)phenyl)-1H-pyrazol-1-yl)cyclohexanecarboxylic acid]: the inhibition at 1 µM fell in the range of 20 to 50%.

As to `O=C(O)CCCc1nc(-c2ccc(NC(=O)Nc3ccc(Cl)cc3Oc3ccccc3)cc2)no1` [Example 322, 4-(3-(4-(3-(4-Chloro-2-phenoxyphenyl)ureido)phenyl)-1,2,4-oxadiazol-5-yl) butanoic acid], the inhibition at 1 µM is above 50%.

For the molecule `O=C(O)CC1CCC(c2ncc(-c3ccc(NC(=O)Nc4ccccc4Cl)cc3)s2)CC1` (stereo not drawn) [Example 346, 2-(4-(5-(4-(3-(2-Chlorophenyl)ureido)phenyl)thiazol-2-yl)cyclohexyl)acetic acid], the inhibition at 1 µM was above 50%.

`O=C(O)CC1CCC(c2ncc(-c3ccc(NC(=O)Nc4ccccc4F)cc3)s2)CC1` (stereo not drawn) [Example 348, 2-(4-(5-(4-(3-(2-Fluorophenyl)ureido)phenyl)thiazol-2-yl)cyclohexyl)acetic acid]: the inhibition at 1 µM is above 50%.

Turning to `O=C(O)CC1CCC(c2ncc(-c3ccc(NC(=O)Nc4cc(F)cc(F)c4)cc3)s2)CC1` (stereo not drawn) [Example 356, 2-(4-(5-(4-(3-(3,5-Difluorophenyl)ureido)phenyl)thiazol-2-yl)cyclohexyl)acetic acid], the inhibition at 1 µM is above 50%.

As to `O=C(O)CC1CCC(c2ncc(-c3ccc(NC(=O)Nc4cc(F)c(F)cc4F)cc3)s2)CC1` (stereo not drawn) [Example 358, 2-(4-(5-(4-(3-(2,4,5-Trifluorophenyl)ureido)phenyl)thiazol-2-yl)cyclohexyl)acetic acid], the inhibition at 1 µM was above 50%.

For `O=C(O)CC1CCC(c2ncc(-c3ccc(NC(=O)Nc4c(F)cc(F)cc4F)cc3)s2)CC1` (stereo not drawn) [Example 360, 2-(4-(5-(4-(3-(2,4,6-Trifluorophenyl)ureido)phenyl)thiazol-2-yl)cyclohexyl)acetic acid], the inhibition at 1 µM is above 50%.

For `O=C(O)CC1CCC(c2ncc(-c3ccc(NC(=O)Nc4ccc(F)cc4F)cc3)s2)CC1` (stereo not drawn) [Example 362, 2-(4-(5-(4-(3-(2,4-Difluorophenyl)ureido)phenyl)thiazol-2-yl)cyclohexyl)acetic acid], the inhibition at 1 µM is above 50%.

Regarding `O=C(O)CC1CCC(c2ncc(-c3ccc(NC(=O)c4ccc(Cl)cc4Cl)cc3)s2)CC1` (stereo not drawn) [Example 364, 2-(4-(5-(4-(2,4-Dichlorobenzamido)phenyl)thiazol-2-yl)cyclohexyl)acetic acid], the inhibition at 1 µM was above 50%.

Consider `O=C(O)CC1CCC(c2ncc(-c3ccc(NC(=O)c4c(F)cccc4C(F)(F)F)cc3)s2)CC1` (stereo not drawn) [Example 366, 2-(4-(5-(4-(2-Fluoro-6-(trifluoromethyl)benzamido)phenyl)thiazol-2-yl)cyclohexyl)acetic acid], for which the inhibition at 1 µM is above 50%.

As to `O=C(O)CC1CCC(c2ncc(-c3ccc(NC(=O)Nc4cc(F)c(F)c(F)c4)cc3)s2)CC1` (stereo not drawn) [Example 368, 2-(4-(5-(4-(3-(3,4,5-Trifluorophenyl)ureido)phenyl)thiazol-2-yl)cyclohexyl)acetic acid], the inhibition at 1 µM was above 50%.

These data come from patent US20130158075A1, “HETEROCYCLIC COMPOUNDS AS DGAT1 INHIBITORS” (PIRAMAL ENTERPRISES LIMITED, priority 2010, published 2013).
